Experimental data taken from patent US20230106174A1, “RAS INHIBITORS” (Revolution Medicines, Inc., priority 2021, published 2023).
Read-outs that look alike come from different tables or passages of the source.

Experiments:
K-Ras G12C = molecular target: T1, K-Ras G12C (Homo sapiens, UniProt P01116+P62937, G12C); test: pERK potency assay in NCI-H358 cells (AlphaLISA SureFire or In-Cell Western); format: cell-based; conditions: 4 hours incubation
T1 construct: endogenous in cells; host or cells: NCI-H358
T1 sequence (P01116 1-188 isoform P01116-2 G12C): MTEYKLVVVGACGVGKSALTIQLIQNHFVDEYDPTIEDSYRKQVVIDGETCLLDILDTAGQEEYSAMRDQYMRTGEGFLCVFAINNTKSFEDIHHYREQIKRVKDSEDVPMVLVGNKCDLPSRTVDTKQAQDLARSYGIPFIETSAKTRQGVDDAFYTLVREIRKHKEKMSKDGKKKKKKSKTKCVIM
T1 sequence (P62937 whole entry): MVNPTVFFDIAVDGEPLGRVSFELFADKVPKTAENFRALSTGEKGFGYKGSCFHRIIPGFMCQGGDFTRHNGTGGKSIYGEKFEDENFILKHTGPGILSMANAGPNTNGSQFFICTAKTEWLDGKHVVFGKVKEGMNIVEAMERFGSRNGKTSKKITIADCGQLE
Description: The purpose of this assay was to measure the ability of test compounds to inhibit K-Ras in cells. […] This procedure measures a decrease in cellular pERK in response to test compounds. The procedure described below in NCI-H358 cells is applicable to K-Ras G12C. […]
NCI-H358 cells were grown and maintained using media and procedures recommended by the ATCC. On the day prior to compound addition, cells were plated in 384-well cell culture plates (40 μl/well) and grown overnight in a 37° C., 5% CO2 incubator. Test compounds were prepared in 10, 3-fold dilutions in DMSO, with a high concentration of 10 mM. On the day of assay, 40 nL of test compound was added to each well of cell culture plate using an Echo550 liquid handler (LabCyte®). Concentrations of test compound were tested in duplicate. After compound addition, cells were incubated 4 hours at 37° C., 5% CO2. Following incubation, culture medium was removed and cells were washed once with phosphate buffered saline.
In some experiments, cellular pERK level was determined using the AlphaLISA SureFire Ultra p-ERK1/2 Assay Kit (PerkinElmer). Cells were lysed in 25 μL lysis buffer, with shaking at 600 RPM at room temperature. Lysate (10 μL) was transferred to a 384-well Opti-plate (PerkinElmer) and 5 μL acceptor mix was added. After a 2-hour incubation in the dark, 5 μL donor mix was added, the plate was sealed, and incubated 2 hours at room temperature. Signal was read on an Envision plate reader (PerkinElmer) using standard AlphaLISA settings. Analysis of raw data was carried out in Excel (Microsoft) and Prism (GraphPad). Signal was plotted vs. the decadal logarithm of compound concentration, and IC50 was determined by fitting a 4-parameter sigmoidal concentration response model.
In other experiments, cellular pERK was determined by In-Cell Western. Following compound treatment, cells were washed twice with 200 μL tris buffered saline (TBS) and fixed for 15 minutes with 150 μL 4% paraformaldehyde in TBS. Fixed cells were washed 4 times for 5 minutes with TBS containing 0.1% Triton X-100 (TBST) and then blocked with 100 μL Odyssey blocking buffer (LI-COR) for 60 minutes at room temperature. […] Cells were washed 4 times for 5 minutes with TBST. Secondary antibody (IR-800CW rabbit, LI-COR, diluted 1:800) and DNA stain DRAQ5 (LI-COR, diluted 1:2000) were added and incubated 1-2 hours at room temperature. Cells were washed 4 times for 5 minutes with TBST. Plates were scanned on a Li—COR Odyssey CLx Imager. Analysis of raw data was carried out in Excel (Microsoft) and Prism (GraphPad). Signal was plotted vs. the decadal logarithm of compound concentration, and IC50 was determined by fitting a 4-parameter sigmoidal concentration response model.

NCI-H358 (K-Ras G12C) = test: CellTiter-Glo cell viability assay, 5-day treatment, NCI-H358; format: cell-based; conditions: Homo sapiens, NCI-H358, 120 h
Description: Determination of Cell Viability in RAS Mutant Cancer Cell Lines
Protocol: CellTiter-Glo® Cell Viability Assay
Note—The following protocol describes a procedure for monitoring cell viability of K-Ras mutant cancer cell lines in response to a compound of the invention. Other RAS isoforms may be employed, though the number of cells to be seeded will vary based on cell line used.
The purpose of this cellular assay was to determine the effects of test compounds on the proliferation of three human cancer cell lines (NCI-H358 (K-Ras G12C), AsPC-1 (K-Ras G12D), and Capan-1 (K-Ras G12V)) over a 5-day treatment period by quantifying the amount of ATP present at endpoint using the CellTiter-Glo® 2.0 Reagent (Promega).
Cells were seeded at 250 cells/well in 40 μL of growth medium in 384-well assay plates and incubated overnight in a humidified atmosphere of 5% CO2 at 37° C. On the day of the assay, 10 mM stock solutions of test compounds were first diluted into 3 mM solutions with 100% DMSO. Well-mixed compound solutions (15 μL) were transferred to the next wells containing 30 μL of 100% DMSO, and repeated until a 9-concentration 3-fold serial dilution was made (starting assay concentration of 10 μM). Test compounds (132.5 nL) were directly dispensed into the assay plates containing cells. The plates were shaken for 15 seconds at 300 rpm, centrifuged, and incubated in a humidified atmosphere of 5% CO2 at 37° C. for 5 days. On day 5, assay plates and their contents were equilibrated to room temperature for approximately 30 minutes. CellTiter-Glo® 2.0 Reagent (25 μL) was added, and plate contents were mixed for 2 minutes on an orbital shaker before incubation at room temperature for 10 minutes. Luminescence was measured using the PerkinElmer Enspire. Data were normalized by the following: (Sample signal/Avg. DMSO)*100. The data were fit using a four-parameter logistic fit.

Compound: C=CCOC(=O)N[C@H]1Cc2nc(no2)-c2ccc3c(c2)c(c(-c2cccnc2[C@H](C)OC)n3CC)CC(C)(C)COC(=O)[C@@H]2CCCN(N2)C1=O
- ring closure, yield of all isomers (from C=CCOC(=O)NC(Cc1nc(-c2ccc3c(c2)c(CC(C)(C)COC(=O)[C@@H]2CCCNN2)c(-c2cccnc2[C@H](C)OC)n3CC)no1)C(=O)O, amide bond, HATU/DIPEA, DCM, 139.0 mM, 25.0 °C, 16.0 h): 33%

Compound: CCn1c(-c2cc(N3CCN(C(=O)OCc4ccccc4)CC3)cnc2[C@H](C)OC)c2c3cc(ccc31)-c1csc(n1)C[C@H](NC(=O)OC(C)(C)C)C(=O)N1CCC[C@H](N1)C(=O)OCC(C)(C)C2
- ring closure, yield of all isomers (from CCn1c(-c2cc(N3CCN(C(=O)OCc4ccccc4)CC3)cnc2[C@H](C)OC)c(CC(C)(C)CO)c2cc(-c3csc(C[C@H](NC(=O)OC(C)(C)C)C(=O)N4CCC[C@@H](C(=O)O)N4)n3)ccc21, ester bond, EDCI/HOBt/DIEA, MeCN, 10.3 mM, 25.0 °C, 16.0 h): 54.8%

Compound: CCn1c(-c2cc(N3CCN4CCCC[C@@H]4C3)cnc2[C@H](C)OC)c2c3cc(ccc31)-c1cccc(c1)C[C@H](NC(=O)OC(C)(C)C)C(=O)N1CCC[C@H](N1)C(=O)OCC(C)(C)C2
- ring closure, yield of all isomers (from CCn1c(-c2cc(N3CCN4CCCC[C@@H]4C3)cnc2[C@H](C)OC)c(CC(C)(C)CO)c2cc(-c3cccc(C[C@H](NC(=O)OC(C)(C)C)C(=O)N4CCC[C@@H](C(=O)O)N4)c3)ccc21, ester bond, EDCI/HOBt/DIPEA, DCM, 11.3 mM, 25.0 °C, 16.0 h): 62%

Compound: CCn1c(-c2cccnc2[C@H](C)OC)c2c3cc(ccc31)-c1nc(no1)C[C@H](NC(=O)OC(C)(C)C)C(=O)N1CCC[C@H](N1)C(=O)OCC(C)(C)C2
- ring closure, yield of all isomers (from CCn1c(-c2cccnc2[C@H](C)OC)c(CC(C)(C)CO)c2cc(-c3nc(C[C@H](NC(=O)OC(C)(C)C)C(=O)N4CCC[C@@H](C(=O)O)N4)no3)ccc21, ester bond, EDCI/HOBT/DIPEA, DCM, 6.8 mM, 25.0 °C, 16.0 h): 18%

Compound: CO[C@@H](C)c1ncccc1-c1c2c3cc(ccc3n1CC(F)(F)F)-c1coc(n1)C[C@H](NC(=O)OCc1ccccc1)C(=O)N1CCC[C@H](N1)C(=O)OCC(C)(C)C2
- ring closure, yield of all isomers (from CO[C@@H](C)c1ncccc1-c1c(CC(C)(C)COC(=O)[C@@H]2CCCNN2)c2cc(-c3coc(C[C@H](NC(=O)OCc4ccccc4)C(=O)O)n3)ccc2n1CC(F)(F)F, amide bond, EDCI/HOBt/DIPEA, DCM, 6.06 mM, 25.0 °C, 16.0 h): 21%

Compound: CO[C@@H](C)c1ncccc1-c1c2c3cc(ccc3n1CC(F)(F)F)C1CCCN(C1)C[C@H](NC(=O)OC(C)(C)C)C(=O)N1CCC[C@H](N1)C(=O)OCC(C)(C)C2
- ring closure, yield of all isomers (from CO[C@@H](C)c1ncccc1-c1c(CC(C)(C)CO)c2cc(C3CCCN(C[C@H](NC(=O)OC(C)(C)C)C(=O)N4CCC[C@@H](C(=O)O)N4)C3)ccc2n1CC(F)(F)F, ester bond, EDCI/HOBT/DIPEA, DCM, 6.2 mM, 25.0 °C): 17%

Compound: CO[C@@H](C)c1ncccc1-c1c2c3cc(ccc3n1CC(F)(F)F)C1CCN(C1)C[C@H](NC(=O)OC(C)(C)C)C(=O)N1CCC[C@H](N1)C(=O)OCC(C)(C)C2
- ring closure, yield of all isomers (from CO[C@@H](C)c1ncccc1-c1c(CC(C)(C)CO)c2cc(C3CCN(C[C@H](NC(=O)OC(C)(C)C)C(=O)N4CCC[C@@H](C(=O)O)N4)C3)ccc2n1CC(F)(F)F, ester bond, EDCI/HOBt/DIPEA, DCM, 6.97 mM, 25.0 °C, 16.0 h): 21%

Compound: CO[C@@H](C)c1ncccc1-c1c2c3cc(ccc3n1CC(F)(F)F)C1CN(C1)C[C@H](NC(=O)OC(C)(C)C)C(=O)N1CCC[C@H](N1)C(=O)OCC(C)(C)C2
- ring closure, yield of all isomers (from CO[C@@H](C)c1ncccc1-c1c(CC(C)(C)CO)c2cc(C3CN(C[C@H](NC(=O)OC(C)(C)C)C(=O)N4CCC[C@@H](C(=O)O)N4)C3)ccc2n1CC(F)(F)F, ester bond, EDCI/HOBt/DIPEA, DCM, 6.45 mM, 30.0 °C, 16.0 h): 37%

Compound: C=CC(=O)N1CCOC2(CCN(C(=O)N(C)[C@H](C(=O)N[C@H]3Cc4cncc(n4)-c4ccc5c(c4)c(c(-c4cccnc4[C@H](C)OC)n5CC)CC(C)(C)COC(=O)[C@@H]4CCCN(N4)C3=O)C(C)C)CC2)C1 (atropisomer, axis not shown) [Example A36]
- IC50 (K-Ras G12C): > 1 µM

Compound: C=CC(=O)N1COC2(CCN(C(=O)N(C)[C@H](C(=O)N[C@H]3CC4=NC=C(O4)c4ccc5c(c4)c(c(-c4cccnc4[C@H](C)OC)n5CC)CC(C)(C)COC(=O)[C@@H]4CCCN(N4)C3=O)C(C)C)CC2)C1 (atropisomer, axis not shown) [Example A37]
- IC50 (K-Ras G12C): > 1 µM

Compound: C=CC(=O)N1CCN(CC)C2(CCN(C(=O)N(C)[C@H](C(=O)N[C@H]3C[C@H]4CN(CCO4)c4ccc5c(c4)c(c(-c4cccnc4[C@H](C)OC)n5CC)CC(C)(C)COC(=O)[C@@H]4CCCN(N4)C3=O)C(C)C)CC2)C1 (atropisomer, axis not shown) [Example A38]
- IC50 (K-Ras G12C): > 1 µM
- IC50 (NCI-H358 (K-Ras G12C)): > 1 µM

Compound: CCn1c(-c2cccnc2[C@H](C)OC)c2c3cc(ccc31)-c1cc(C(F)F)cc(n1)C[C@H](NC(=O)[C@H](C(C)C)N(C)C(=O)N1CCC3(CCN(C(=O)/C=C/CN(C)C)C3)CC1)C(=O)N1CCC[C@H](N1)C(=O)OCC(C)(C)C2 (atropisomer, axis not shown) [Example A39]
- IC50 (NCI-H358 (K-Ras G12C)): > 1 µM

Compound: C=CC(=O)N1CC2(CCN(C(=O)N(C)[C@H](C(=O)N[C@H]3C[C@H]4CN(CCO4)c4ccc5c(c4)c(c(-c4cccnc4[C@H](C)OC)n5CC)CC(C)(C)COC(=O)[C@@H]4CCCN(N4)C3=O)C(C)C)CC2)C1 (atropisomer, axis not shown) [Example A121]
- IC50 (K-Ras G12C): > 1 µM

Compound: C=CC(=O)N1CCOC2(CCN(C(=O)N(C)[C@H](C(=O)N[C@H]3Cc4cncc(c4)-c4ccc5c(c4)c(c(-c4cccnc4[C@H](C)OC)n5CC)CC(C)(C)COC(=O)[C@@H]4CCCN(N4)C3=O)C(C)C)CC2)C1 (atropisomer, axis not shown) [Example A124]
- IC50 (K-Ras G12C): > 1 µM

Compound: CCn1c(-c2cccnc2[C@H](C)OC)c2c3cc(ccc31)N1CCO[C@@H](C[C@H](NC(=O)[C@H](C(C)C)N(C)C(=O)N3CCC4(CC3)CN(C(=O)/C=C/CF)C4)C(=O)N3CCC[C@H](N3)C(=O)OCC(C)(C)C2)C1 (atropisomer, axis not shown) [Example A128]
- IC50 (K-Ras G12C): > 1 µM
- IC50 (NCI-H358 (K-Ras G12C)): > 1 µM

Compound: C=CC(=O)N1CCOC2(CCN(C(=O)N(C)[C@H](C(=O)N[C@H]3C[C@@]4(C)CN(CCO4)c4ccc5c(c4)c(c(-c4cccnc4[C@H](C)OC)n5CC)CC(C)(C)COC(=O)[C@@H]4CCCN(N4)C3=O)C(C)C)CC2)C1 (atropisomer, axis not shown) [Example A130]
- IC50 (K-Ras G12C): > 0.89 µM

Compound: C=CC(=O)N1CCOC2(C1)CN(C(=O)N(C)[C@H](C(=O)N[C@H]1C[C@H]3CN(CCO3)c3ccc4c(c3)c(c(-c3cccnc3[C@H](C)OC)n4CC)CC(C)(C)COC(=O)[C@@H]3CCCN(N3)C1=O)C(C)C)C2 (atropisomer, axis not shown) [Example A136]
- IC50 (K-Ras G12C): > 1 µM

Compound: C=CC(=O)N1CCN(C)C2(CCN(C(=O)N(C)[C@H](C(=O)N[C@H]3C[C@H]4CN(CCO4)c4ccc5c(c4)c(c(-c4cccnc4[C@H](C)OC)n5CC)CC(C)(C)COC(=O)[C@@H]4CCCN(N4)C3=O)C(C)C)CC2)C1 (atropisomer, axis not shown) [Example A189]
- IC50 (K-Ras G12C): > 1 µM
